Source: patent US12180187B2, “1-phenyl-5-azinylpyrazolyl-3-oxyalkyl acids and their use for controlling unwanted plant growth” (BAYER AKTIENGESELLSCHAFT, priority 2019, dated 2024)

Key:
ECHCG [1] = assay: Post-emergence action against ECHCG, 1.28 kg/ha; format: in vivo, Echinochloa crus-galli; conditions: dosage 1280 g/ha, visual rating about 3 weeks after treatment vs untreated controls
Summary of the method: (§1)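 Activity scored visually roughly 3 weeks after treatment against untreated plants (0% = as control, 100% = dead). Plants grown in sandy loam in greenhouse, treated at one-leaf stage, 2–3 weeks post-sowing, with WP/EC spray containing 0.5% additive at 600 l/ha.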

VIOTR = assay: Pre-emergence action at 320 g/ha against VIOTR; format: in vivo, Viola tricolor; conditions: dosage 320 g/ha
Summary of the method: (§2)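 Greenhouse pot trial in which formulated compound (wettable powder or emulsion concentrate) goes onto the soil surface right after sowing, at a spray volume of 600 l/ha including 0.5% additive. Effects are judged visually after about 3 weeks (0% = like control, 100% = dead).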

DIGSA [2] = assay: Pre-emergence action against DIGSA, 1280 g/ha; format: in vivo, Digitaria sanguinalis; conditions: visual scoring after about 3 weeks vs untreated controls, 100% = plants have died, 0% = like control plants
Summary of the method: (§3)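 Compound applied as WP or EC in aqueous spray (0.5% additive, 600 L/ha) to the surface of sandy loam covering freshly sown seeds. After about 3 weeks under good greenhouse conditions, damage is given as visual percentage, 100% meaning plant death.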

ABUTH [3] = assay: Post-emergence action against ABUTH, 1.28 kg/ha; format: in vivo, Abutilon theophrasti; conditions: dosage 1280 g/ha, visual rating about 3 weeks after treatment vs untreated controls (100% = plants died)
Summary of the method: as §1

SETVI [4] = assay: Pre-emergence action at 320 g/ha against SETVI; format: in vivo, Setaria viridis; conditions: visual scoring after about 3 weeks vs untreated controls
Summary of the method: as §2

POAAN [5] = assay: Post-emergence action against POAAN, 1.28 kg/ha; format: in vivo, Poa annua; conditions: dosage 1280 g/ha, visual rating about 3 weeks after treatment vs untreated controls
Summary of the method: as §1

VERPE [6] = assay: Pre-emergence action at 320 g/ha against VERPE; format: in vivo, Veronica persica; conditions: visual scoring after about 3 weeks vs untreated controls
Summary of the method: as §2

AMARE [7] = assay: Pre-emergence action against AMARE, 1280 g/ha; format: in vivo, Amaranthus retroflexus; conditions: scored visually after about 3 weeks vs untreated controls (100% = plants have died)
Summary of the method: as §3

MATIN [8] = assay: Pre-emergence action at 320 g/ha against MATIN; format: in vivo, Tripleurospermum inodorum (Matricaria inodora); conditions: visual scoring after about 3 weeks vs untreated controls
Summary of the method: as §2

LOLRI [9] = assay: Pre-emergence action at 320 g/ha against LOLRI; format: in vivo, Lolium rigidum; conditions: visual scoring after about 3 weeks vs untreated controls
Excerpt: (§4) b) Seeds of monocotyledonous and dicotyledonous weed plants and crop plants are placed in plastic or organic planting pots and covered with soil. The compounds of the invention, formulated in the form of wettable powders (WP) or as emulsion concentrates (EC), are then applied onto the surface of the covering soil as aqueous suspension or emulsion with addition of 0.5% additive at a water application rate of 600 l/ha (converted). After the treatment, the pots are placed in a greenhouse and kept under good growth conditions for the trial plants. After about 3 weeks, the effect of the preparations is scored visually in comparison with untreated controls as percentages. For example, 100% activity=the plants have died, 0% activity=like control plants. Tables 13 to 26 below show the effects of selected compounds of the general formula (I) on various harmful plants and at an application rate corresponding to 320 g/ha, which were obtained by the experimental procedure mentioned above.

AMARE [10] = assay: Pre-emergence action at 320 g/ha against AMARE; format: in vivo, Amaranthus retroflexus; conditions: visual scoring after about 3 weeks vs untreated controls
Summary of the method: as §2

STEME = assay: Pre-emergence action against STEME, 1280 g/ha; format: in vivo, Stellaria media; conditions: scored visually after about 3 weeks vs untreated controls (100% = plants have died)
Summary of the method: as §3

POAAN [11] = assay: Pre-emergence action against POAAN, 1280 g/ha; format: in vivo, Poa annua; conditions: visual scoring after about 3 weeks vs untreated controls, 100% = plants have died, 0% = like control plants
Summary of the method: as §3

LOLRI [12] = assay: Post-emergence action against LOLRI, 1.28 kg/ha; format: in vivo, Lolium rigidum; conditions: dosage 1280 g/ha, visual rating about 3 weeks after treatment vs untreated controls
Summary of the method: as §1

LOLRI [13] = assay: Pre-emergence action against LOLRI, 1280 g/ha; format: in vivo, Lolium rigidum; conditions: visual scoring after about 3 weeks vs untreated controls, 100% = plants have died, 0% = like control plants
Summary of the method: as §3

POLCO = assay: Pre-emergence action at 320 g/ha against POLCO; format: in vivo, Fallopia convolvulus (Polygonum convolvulus); conditions: visual scoring after about 3 weeks vs untreated controls
Summary of the method: as §2

ALOMY [14] = assay: Post-emergence action against ALOMY, 1.28 kg/ha; format: in vivo, Alopecurus myosuroides; conditions: dosage 1280 g/ha, visual rating about 3 weeks after treatment vs untreated controls
Summary of the method: as §1

KCHSC [15] = assay: Post-emergence action against KCHSC, 1.28 kg/ha; format: in vivo, Bassia scoparia; conditions: dosage 1280 g/ha, visual rating about 3 weeks after treatment vs untreated controls (100% = plants died)
Summary of the method: as §1

MATIN [16] = assay: Post-emergence action against MATIN, 1.28 kg/ha; format: in vivo, Tripleurospermum inodorum (Matricaria inodora); conditions: dosage 1280 g/ha, visual rating about 3 weeks after treatment vs untreated controls (100% = plants died)
Summary of the method: as §1

ALOMY [17] = assay: Pre-emergence action against ALOMY, 1280 g/ha; format: in vivo, Alopecurus myosuroides; conditions: visual scoring after about 3 weeks vs untreated controls, 100% = plants have died, 0% = like control plants
Summary of the method: as §3

KCHSC [18] = assay: Pre-emergence action against KCHSC, 1280 g/ha; format: in vivo, Bassia scoparia; conditions: scored visually after about 3 weeks vs untreated controls (100% = plants have died)
Summary of the method: as §3

MATIN [19] = assay: Pre-emergence action against MATIN, 1280 g/ha; format: in vivo, Tripleurospermum inodorum (Matricaria inodora); conditions: scored visually after about 3 weeks vs untreated controls (100% = plants have died)
Summary of the method: as §3

SETVI [20] = assay: Post-emergence action against SETVI, 1.28 kg/ha; format: in vivo, Setaria viridis; conditions: dosage 1280 g/ha, visual rating about 3 weeks after treatment vs untreated controls
Summary of the method: as §1

VERPE [21] = assay: Post-emergence action against VERPE, 1.28 kg/ha; format: in vivo, Veronica persica; conditions: dosage 1280 g/ha, visual rating about 3 weeks after treatment vs untreated controls (100% = plants died)
Summary of the method: as §1

AMARE [22] = assay: Post-emergence action against AMARE, 1.28 kg/ha; format: in vivo, Amaranthus retroflexus; conditions: dosage 1280 g/ha, visual rating about 3 weeks after treatment vs untreated controls (100% = plants died)
Summary of the method: as §1

ECHCG [23] = assay: Pre-emergence action against ECHCG, 1280 g/ha; format: in vivo, Echinochloa crus-galli; conditions: visual scoring after about 3 weeks vs untreated controls, 100% = plants have died, 0% = like control plants
Summary of the method: as §3

SETVI [24] = assay: Pre-emergence action against SETVI, 1280 g/ha; format: in vivo, Setaria viridis; conditions: visual scoring after about 3 weeks vs untreated controls, 100% = plants have died, 0% = like control plants
Summary of the method: as §3

VERPE [25] = assay: Pre-emergence action against VERPE, 1280 g/ha; format: in vivo, Veronica persica; conditions: scored visually after about 3 weeks vs untreated controls (100% = plants have died)
Summary of the method: as §3

ECHGC = assay: Pre-emergence action at 320 g/ha against ECHGC; format: in vivo, Echinochloa crus-galli; conditions: visual scoring after about 3 weeks vs untreated controls
Excerpt: as §4

DIGSA [26] = assay: Post-emergence action against DIGSA, 1.28 kg/ha; format: in vivo, Digitaria sanguinalis; conditions: dosage 1280 g/ha, visual rating about 3 weeks after treatment vs untreated controls
Summary of the method: as §1

ALOMY [27] = assay: Pre-emergence action at 320 g/ha against ALOMY; format: in vivo, Alopecurus myosuroides; conditions: scored visually after about 3 weeks vs untreated controls (100% = plants have died)
Summary of the method: as §2

AVEFA = assay: Pre-emergence action at 320 g/ha against AVEFA; format: in vivo; conditions: visual scoring after about 3 weeks vs untreated controls
Excerpt: as §4

ABUTH [28] = assay: Pre-emergence action against ABUTH, 1280 g/ha; format: in vivo, Abutilon theophrasti; conditions: scored visually after about 3 weeks vs untreated controls (100% = plants have died)
Excerpt: 1. Pre-Emergence Herbicidal Effect and Crop Plant Compatibility a) Seeds of mono- and dicotyledonous weed plants are placed in plastic pots in sandy loam soil (doubly sown with one species each of mono- or dicotyledonous weed plants per pot) and covered with soil. The compounds of the invention, formulated in the form of wettable powders (WP) or as emulsion concentrates (EC), are then applied onto the surface of the covering soil as aqueous suspension or emulsion with addition of 0.5% additive at a water application rate equivalent to 600 litres per hectare. After the treatment, the pots are placed in a greenhouse and kept under good growth conditions for the trial plants. After about 3 weeks, the effect of the preparations is scored visually in comparison with untreated controls as percentages. For example, 100% activity=the plants have died, 0% activity=like control plants. 1. Pre-Emergence Effectiveness Tables 1 to 12 below show the effects of selected compounds of the general formula (I) according to Tables 1 and 2 on various harmful plants and at an application rate corresponding to 1280 g/ha, which were obtained by the experimental procedure mentioned above.

O=C(O)CNC(=O)COc1nn(-c2ccccc2F)c(-c2ccc(F)nc2)c1Br [Example X-021-a]
Post-emergence action against ECHCG (ECHCG [1]): 100%
Pre-emergence action against VIOTR in % (VIOTR): 100%
Pre-emergence action against DIGSA (DIGSA [2]): 100%
Post-emergence action against ABUTH (ABUTH [3]): 100%
Pre-emergence action against SETVI in % (SETVI [4]): 100%
Post-emergence action against POAAN (POAAN [5]): 100%
Pre-emergence action against VERPE in % (VERPE [6]): 100%
Pre-emergence action against AMARE (AMARE [7]): 100%
Pre-emergence action against MATIN in % (MATIN [8]): 90%
Pre-emergence action against LOLRI in % (LOLRI [9]): 100%
Pre-emergence action against AMARE in % (AMARE [10]): 100%
Pre-emergence action against STEME (STEME): 100%
Pre-emergence action against POAAN (POAAN [11]): 100%
Post-emergence action against LOLRI (LOLRI [12]): 100%
Pre-emergence action against LOLRI (LOLRI [13]): 100%
Pre-emergence action against POLCO in % (POLCO): 100%
Post-emergence action against ALOMY (ALOMY [14]): 100%
Post-emergence action against KCHSC (KCHSC [15]): 100%
Post-emergence action against MATIN (MATIN [16]): 90%
Pre-emergence action against ALOMY (ALOMY [17]): 100%
Pre-emergence action against KCHSC (KCHSC [18]): 90%
Pre-emergence action against MATIN (MATIN [19]): 100%
Post-emergence action against SETVI (SETVI [20]): 100%
Post-emergence action against VERPE (VERPE [21]): 100%
Post-emergence action against AMARE (AMARE [22]): 100%
Pre-emergence action against ECHCG (ECHCG [23]): 100%
Pre-emergence action against SETVI (SETVI [24]): 100%
Pre-emergence action against VERPE (VERPE [25]): 100%
Pre-emergence action against ECHGC in % (ECHGC): 100%
Post-emergence action against DIGSA (DIGSA [26]): 100%
Pre-emergence action at 320 g/ha against ALOMY in % (ALOMY [27]): 100%
Pre-emergence action against AVEFA in % (AVEFA): 100%

CN(C)C(=O)COc1nn(-c2ccccc2F)c(-c2ccc(F)nc2)c1Br [Example X-027]
Post-emergence action against ECHCG (ECHCG [1]): 90%
Pre-emergence action against DIGSA (DIGSA [2]): 100%
Post-emergence action against POAAN (POAAN [5]): 100%
Pre-emergence action against AMARE (AMARE [7]): 100%
Pre-emergence action against STEME (STEME): 90%
Pre-emergence action against POAAN (POAAN [11]): 100%
Pre-emergence action against ALOMY (ALOMY [17]): 100%
Pre-emergence action against ABUTH (ABUTH [28]): 90%
Pre-emergence action against MATIN (MATIN [19]): 90%
Post-emergence action against VERPE (VERPE [21]): 100%
Pre-emergence action against ECHCG (ECHCG [23]): 100%
Pre-emergence action against SETVI (SETVI [24]): 100%
Pre-emergence action against VERPE (VERPE [25]): 100%
